These results are taken from PubChem BioAssay (NCI).

SMILES strings stand for the structures.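 Compound exposure: 48 hours, 5 concentrations, 96-well plates. The concentration for 50% growth inhibition is given as GI50. TGI denotes the concentration required for complete inhibition of growth.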 Some results are limits rather than exact numbers.

Among the test systems are BT-549 breast; CCRF-CEM leukemia; COLO 205 colon; IGROV1 ovarian; LOX IMVI melanoma; NCI-H226 lung; NCI-H460 lung; NCI-H522 lung; OVCAR-4 ovarian; U251 CNS.
What all share (test): growth of human tumour cells (NCI), 48 h

For `O=Nc1c(O)ccc2ccccc12`, the GI50 with BT-549 breast was 12.2 µM; in the assay on CCRF-CEM leukemia, 3.16 µM; in the assay on COLO 205 colon it was 7.81 µM; in the assay on IGROV1 ovarian, 2.15 µM; in the assay on LOX IMVI melanoma it was 2.36 µM; in the assay on NCI-H226 lung, 15.6 µM. The GI50 in the assay with NCI-H460 lung is 14.2 µM; in the assay on NCI-H522 lung, 2.06 µM; in the assay on OVCAR-4 ovarian, 1.29 µM; in the assay with U251 CNS, 2.17 µM. Moreover, the TGI stood at 24.9 µM in the assay with BT-549 breast; 11.4 µM in the assay with CCRF-CEM leukemia; 21.8 µM in the assay with COLO 205 colon; 5.78 µM in the assay with IGROV1 ovarian; 7.51 µM in the assay on LOX IMVI melanoma; 33.4 µM in the assay on NCI-H226 lung. In addition, the TGI was 35.7 µM with NCI-H460 lung, 4.25 µM in the assay on NCI-H522 lung, 2.57 µM with OVCAR-4 ovarian and 5.52 µM with U251 CNS.
For `O=C1c2ccccc2C(=O)N1c1ccc(OCCN2CCCCC2)cc1`, the TGI with BT-549 breast, in the assay on CCRF-CEM leukemia, with COLO 205 colon, in the assay on IGROV1 ovarian, in the assay with LOX IMVI melanoma and in the assay with NCI-H226 lung was greater than 100 µM throughout. The TGI in the assay with NCI-H460 lung, with NCI-H522 lung, in the assay with OVCAR-4 ovarian and in the assay on U251 CNS was greater than 100 µM each time.
`CCNCCNc1cc(-c2ccc(F)cc2)c(C#N)c2nc3ccccc3n12`: the GI50 with BT-549 breast is 4.53 µM; with CCRF-CEM leukemia, 2.77 µM; in the assay on COLO 205 colon, 2.32 µM; in the assay on IGROV1 ovarian it was 7.26 µM; in the assay on LOX IMVI melanoma, 1.82 µM; with NCI-H226 lung it was 12 µM. Moreover, the GI50 is 3.36 µM in the assay with NCI-H460 lung, 2.93 µM in the assay with NCI-H522 lung, 3.4 µM in the assay with OVCAR-4 ovarian and 2.41 µM with U251 CNS. The TGI in the assay with BT-549 breast worked out at 15.5 µM; in the assay with CCRF-CEM leukemia, 6.52 µM; with COLO 205 colon, 5.74 µM; with IGROV1 ovarian it was 22.8 µM; with LOX IMVI melanoma, 3.45 µM; in the assay on NCI-H226 lung, 27 µM. The TGI with NCI-H460 lung turned out to be 10.8 µM; in the assay with NCI-H522 lung, 9.43 µM; in the assay on OVCAR-4 ovarian, 14.5 µM; in the assay on U251 CNS it was 5.05 µM.
For `COc1ccc(/C=C2\COc3ccc(-c4ccccc4)cc3C2=O)cc1O`, the GI50 was 1.69 µM in the assay with BT-549 breast; 2.03 µM in the assay with CCRF-CEM leukemia; 3.68 µM in the assay on COLO 205 colon; 4.37 µM in the assay on IGROV1 ovarian; 1.85 µM in the assay with LOX IMVI melanoma; 15.3 µM with NCI-H226 lung. Besides, the GI50 in the assay with NCI-H460 lung was 2.07 µM; in the assay with NCI-H522 lung it was 2.4 µM; in the assay with OVCAR-4 ovarian, 4.18 µM; in the assay on U251 CNS, 1.83 µM. In addition, the TGI in the assay with BT-549 breast is 5.57 µM; with CCRF-CEM leukemia, greater than 100 µM; in the assay with COLO 205 colon, 21.9 µM; in the assay with IGROV1 ovarian, 15.9 µM; in the assay on LOX IMVI melanoma it was 3.87 µM; in the assay with NCI-H226 lung, 32.9 µM. For the same molecule, the TGI was determined as 5.8 µM in the assay with NCI-H460 lung, 10.5 µM in the assay with NCI-H522 lung, 30.8 µM in the assay with OVCAR-4 ovarian and 4.27 µM in the assay with U251 CNS.
For the molecule `COc1ccccc1-n1c(SCc2cc(OC)c(OC)c(OC)c2)nc2ccc(Cl)cc2c1=O`, the GI50 was 3.95 µM in the assay on BT-549 breast; 3.07 µM in the assay on CCRF-CEM leukemia; 3.03 µM in the assay with COLO 205 colon; 10.9 µM in the assay on IGROV1 ovarian; 5.16 µM in the assay on LOX IMVI melanoma; 13.3 µM in the assay on NCI-H226 lung. The GI50 with NCI-H460 lung is 3.34 µM; in the assay with NCI-H522 lung, 2.61 µM; in the assay on OVCAR-4 ovarian it was 7.35 µM; in the assay with U251 CNS it was 3.72 µM. Moreover, the TGI in the assay with BT-549 breast, in the assay on CCRF-CEM leukemia, in the assay on COLO 205 colon, in the assay with IGROV1 ovarian, in the assay on LOX IMVI melanoma and in the assay on NCI-H226 lung was greater than 100 µM in each case. Also, the TGI with NCI-H460 lung, in the assay with NCI-H522 lung, with OVCAR-4 ovarian and in the assay with U251 CNS was greater than 100 µM in each case.
For the molecule `CC#CC(=O)N1CCC[C@H]1c1nc(-c2ccc(C(=O)Nc3ccccn3)cc2)c2c(N)nccn12`, the GI50 with BT-549 breast is greater than 96.5 µM; with CCRF-CEM leukemia it was greater than 82.1 µM; in the assay with COLO 205 colon, 85.4 µM; with IGROV1 ovarian, 18 µM; in the assay on LOX IMVI melanoma it was 98.5 µM; with NCI-H226 lung, greater than 65.4 µM. For the same molecule, the GI50 in the assay on NCI-H460 lung was 89.5 µM; in the assay with NCI-H522 lung it was 13.9 µM; in the assay on OVCAR-4 ovarian, 58 µM; with U251 CNS it was greater than 92.4 µM. In addition, the TGI was greater than 100 µM in the assay on BT-549 breast; greater than 100 µM in the assay with CCRF-CEM leukemia; greater than 100 µM in the assay with COLO 205 colon; greater than 83.8 µM in the assay on IGROV1 ovarian; greater than 100 µM in the assay on LOX IMVI melanoma; greater than 100 µM with NCI-H226 lung. Further, the TGI in the assay on NCI-H460 lung, with NCI-H522 lung, in the assay with OVCAR-4 ovarian and with U251 CNS was greater than 100 µM each time.
Take `C=C(C)[C@H]1CC/C(C)=C/CCC(C)C(=O)CC/C(CO)=C\[C@@H]1O` (stereo not given in full): the GI50 in the assay on BT-549 breast is 88.1 µM; with CCRF-CEM leukemia, 44.6 µM; in the assay with COLO 205 colon, greater than 100 µM; in the assay on IGROV1 ovarian, greater than 100 µM; in the assay on LOX IMVI melanoma, 57.3 µM; with NCI-H226 lung, greater than 100 µM. Further, the GI50 was 58.8 µM with NCI-H460 lung, 86.3 µM in the assay on NCI-H522 lung, 20.4 µM with OVCAR-4 ovarian and 90.3 µM in the assay on U251 CNS. In addition, the TGI with BT-549 breast, with CCRF-CEM leukemia, with COLO 205 colon, in the assay with IGROV1 ovarian, in the assay on LOX IMVI melanoma and in the assay on NCI-H226 lung was greater than 100 µM throughout. Besides, the TGI in the assay on NCI-H460 lung, in the assay on NCI-H522 lung, with OVCAR-4 ovarian and in the assay with U251 CNS was greater than 100 µM each time.
